Laboratory results published in ChEMBL document CHEMBL1201862, “PubChem BioAssay data set” (2004).
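Results reflect a 48-hour exposure of cells in 96-well plates to compound at five concentrations. Here, GI50 denotes the concentration required for 50% inhibition of growth.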 Activity calls are given as the source filed them. Rule as the data show it: active = GI50 up to about 1.1 µM and inactive = higher.

Tests used:
Experiment in all cases: DTP human tumour cell line panel, 48 h
SNB-78 = tested on: SNB-78
XF498 = tested on: XF498
HOP-18 = tested on: HOP-18
DMS-273 = tested on: DMS-273
LXFL 529 = tested on: LXFL 529
M19-MEL = tested on: M19-MEL
DLD-1 = tested on: DLD-1
KM-20L2 = tested on: KM-20L2
RXF 631 = tested on: RXF 631

SMILES | GI50 (SNB-78) | GI50 (XF498) | GI50 (HOP-18) | GI50 (DMS-273) | GI50 (LXFL 529) | GI50 (M19-MEL) | GI50 (DLD-1) | GI50 (KM-20L2) | GI50 (RXF 631)
CC12CP(=O)(c3ccccc3)CC1C2(Cl)Cl (centres undefined) | > 100 µM (inactive) | > 100 µM (inactive) | > 100 µM (inactive) | > 100 µM (inactive) | > 100 µM (inactive) | > 100 µM (inactive) | > 100 µM (inactive) | > 100 µM (inactive) | –
C=C(C)C1CC=C(C(=O)O)CC1 (centres undefined) | – | – | – | 1340 µM (inactive) | 1490 µM (inactive) | 1160 µM (inactive) | 1490 µM (inactive) | 1410 µM (inactive) | 839 µM (inactive)
O=C(Nc1ccccc1)n1cc(-c2ccccn2)c(N2CCOCC2)n1 | 24.9 µM (inactive) | 9.23 µM (inactive) | > 100 µM (inactive) | 3.44 µM (inactive) | 7.89 µM (inactive) | 6.61 µM (inactive) | 6.61 µM (inactive) | 2.68 µM (inactive) | –
Cc1c(Cl)ccc2[s+]snc12 | 31 µM (inactive) | 25.3 µM (inactive) | 29 µM (inactive) | 38.2 µM (inactive) | 29.6 µM (inactive) | 33 µM (inactive) | 25.4 µM (inactive) | > 100 µM (inactive) | 33.4 µM (inactive)
O=C(COc1ccc(Cl)cc1)N1CCN(C(=O)COc2ccc(Cl)cc2)c2ccccc21 | 45.4 µM (inactive) | 24.5 µM (inactive) | 71.3 µM (inactive) | 39.2 µM (inactive) | 37.4 µM (inactive) | 38.1 µM (inactive) | 64 µM (inactive) | > 100 µM (inactive) | –
N#CC1(C=O)c2ccccc2C=CN1C(=O)c1ccccc1 (centres undefined) | 78.7 µM (inactive) | 22 µM (inactive) | 41.4 µM (inactive) | 49.2 µM (inactive) | 33.3 µM (inactive) | 33.7 µM (inactive) | – | 43.6 µM (inactive) | 56.5 µM (inactive)
CC1=CC(=O)NP(=O)(Oc2ccc(C)cc2)N1 (centres undefined) | > 100 µM (inactive) | > 100 µM (inactive) | > 100 µM (inactive) | > 100 µM (inactive) | > 100 µM (inactive) | > 100 µM (inactive) | > 100 µM (inactive) | > 100 µM (inactive) | > 100 µM (inactive)
CCCOCN1COCN/C1=N\C#N | > 100 µM (inactive) | > 100 µM (inactive) | 32.8 µM (inactive) | 18 µM (inactive) | > 100 µM (inactive) | 30.9 µM (inactive) | 70.1 µM (inactive) | 36.2 µM (inactive) | –
COc1ccccc1/N=N/c1c(-c2ccccc2)nn(C(=O)CC(=O)Nc2cccc(C)c2)c1-c1ccccc1 | 61.8 µM (inactive) | 16.4 µM (inactive) | > 100 µM (inactive) | 34.5 µM (inactive) | 15.4 µM (inactive) | 35.8 µM (inactive) | 25.8 µM (inactive) | 27.3 µM (inactive) | 7.4 µM (inactive)
CCOC12OC3=C(CC1CC1=C(CCC1=O)O2)C(=O)CC3 (centres undefined) | > 100 µM (inactive) | – | > 100 µM (inactive) | > 100 µM (inactive) | > 100 µM (inactive) | > 100 µM (inactive) | > 100 µM (inactive) | > 100 µM (inactive) | > 100 µM (inactive)
Cc1ccc(Sc2ccc(C)cc2[N+](=O)[O-])c([N+](=O)[O-])c1 | > 100 µM (inactive) | > 100 µM (inactive) | > 100 µM (inactive) | > 100 µM (inactive) | > 100 µM (inactive) | > 100 µM (inactive) | – | > 100 µM (inactive) | –
N#CC(c1ccc(Cl)cc1)c1cccc(Cl)n1 (centres undefined) | 67.3 µM (inactive) | 24.8 µM (inactive) | – | – | 30.3 µM (inactive) | 60.1 µM (inactive) | 83 µM (inactive) | 80.4 µM (inactive) | –
CC[C@H]1[C@@H](C)C=C[C@@H](C)N1S(=O)(=O)c1ccc(C)cc1 | > 100 µM (inactive) | 14.1 µM (inactive) | – | > 100 µM (inactive) | 73.8 µM (inactive) | > 100 µM (inactive) | – | > 100 µM (inactive) | 16.7 µM (inactive)
COc1ccc([C@@H]2OC(=O)C3C2C(=O)O[C@H]3c2ccc(OC)cc2)cc1 (some centres undefined) | > 100 µM (inactive) | > 100 µM (inactive) | > 100 µM (inactive) | > 100 µM (inactive) | > 100 µM (inactive) | > 100 µM (inactive) | > 100 µM (inactive) | > 100 µM (inactive) | > 100 µM (inactive)
NC(=S)N/N=C/c1cn(CCCl)c2ccccc12 | > 100 µM (inactive) | – | 61.9 µM (inactive) | – | 39.7 µM (inactive) | 52.1 µM (inactive) | 71.9 µM (inactive) | – | –
CC(=O)OCC1OC(N2C(=O)C(=O)c3ccccc32)C(OC(C)=O)C(OC(C)=O)C1OC(C)=O (centres undefined) | – | – | > 10 µM (inactive) | > 100 µM (inactive) | > 100 µM (inactive) | 91.2 µM (inactive) | > 100 µM (inactive) | > 100 µM (inactive) | > 100 µM (inactive)
COC(=O)C1=C(C(=O)OC)C2C(C)=CC(C)=CN2C(C#N)=C(SC)S1 (centres undefined) | 41.3 µM (inactive) | – | – | 31.8 µM (inactive) | 16.9 µM (inactive) | 17.7 µM (inactive) | 22.6 µM (inactive) | 32.7 µM (inactive) | –
O=C(C=P(c1ccccc1)(c1ccccc1)c1ccccc1)CC(=S)CC(=O)C=P(c1ccccc1)(c1ccccc1)c1ccccc1 | – | – | 2.59 µM (inactive) | 2.88 µM (inactive) | 2.77 µM (inactive) | 4.57 µM (inactive) | 4.58 µM (inactive) | 4.29 µM (inactive) | > 100 µM (inactive)
CCOC(=O)[C-]([N+]#N)[Si](C)(C)C | > 100 µM (inactive) | 56.9 µM (inactive) | > 100 µM (inactive) | > 100 µM (inactive) | – | > 100 µM (inactive) | > 100 µM (inactive) | > 100 µM (inactive) | –
CN1C/C(=C\c2ccccc2)C2=NN(C(N)=S)[C@H](c3ccccc3)[C@@H]2C1 | 28.1 µM (inactive) | > 100 µM (inactive) | – | 47.4 µM (inactive) | 29.4 µM (inactive) | 55.2 µM (inactive) | 53.7 µM (inactive) | 55.6 µM (inactive) | –
C[N+](C)(C)CC(=O)N/N=C(\CCC(=O)NCCc1ccccc1)CC(=O)c1ccccc1 | > 100 µM (inactive) | > 100 µM (inactive) | > 100 µM (inactive) | > 100 µM (inactive) | > 100 µM (inactive) | > 100 µM (inactive) | > 100 µM (inactive) | > 100 µM (inactive) | –
c1ccc(COCC2OC3c4ccccc4COC3C2OCc2ccccc2)cc1 (centres undefined) | > 100 µM (inactive) | – | > 100 µM (inactive) | 83.6 µM (inactive) | – | > 100 µM (inactive) | > 100 µM (inactive) | > 100 µM (inactive) | > 100 µM (inactive)
O=C(CSc1nnc(Cc2ccccc2)o1)Nc1cccc([N+](=O)[O-])c1 | > 100 µM (inactive) | – | > 100 µM (inactive) | > 100 µM (inactive) | > 100 µM (inactive) | > 100 µM (inactive) | > 100 µM (inactive) | > 100 µM (inactive) | –
Cc1cccc(C)c1NC(=O)CCC(=O)CC(=O)C(C)C | > 100 µM (inactive) | > 100 µM (inactive) | > 100 µM (inactive) | > 100 µM (inactive) | > 100 µM (inactive) | > 100 µM (inactive) | > 100 µM (inactive) | > 100 µM (inactive) | –
COc1cc(NS(C)(=O)=O)ccc1Nc1c2ccccc2nc2c1[nH]c1ccc(NC3OC(CO)C(O)C(O)C3O)cc12 (centres undefined) | 1.27 µM (inactive) | – | 0.048 µM (active) | < 0.01 µM (active) | 0.9 µM (active) | 0.165 µM (active) | 0.293 µM (active) | 0.163 µM (active) | –
NC(=O)C(=O)N/N=C1\C(=O)N(c2ccc(Cl)cc2Cl)C(=O)C1C(=O)Nc1ccc(Cl)cc1Cl (centres undefined) | > 100 µM (inactive) | > 100 µM (inactive) | 76.9 µM (inactive) | > 100 µM (inactive) | > 100 µM (inactive) | > 100 µM (inactive) | > 100 µM (inactive) | > 100 µM (inactive) | –
